Reference: patent US4466970A, “Dioxocyclobutene compounds” (Smith Kline & French Laboratories Limited, priority 1982, dated 1984)

Tested on: histamine H2 -receptors
Assay: Heidenhain pouch dog: inhibition of histamine-stimulated acid secretion
Assay type: in vivo
Details: intravenous administration; dose levels adjusted to produce similar peak responses

Nc1c(NCCCOc2cc(CN3CCCCC3)ccn2)c(=O)c1=O [Example 1, 1-[3-[4-(Piperidinomethyl)pyrid-2-yloxy]prop-1-ylamino]-2-aminocyclobut-1-ene-3,4-dione]
duration of action relative to cimetidine: significant increase in duration of action
